Literature values in paper PMC6361557 (Cancer Science, 2019).

Test system: PSMA
Conditions: LNCaP cells

IC50	Molecule
24.3 nM	^68Ga‐PSMA‐11
